Paper PMC6615598, “Novel antibiotics effective against gram-positive and -negative multi-resistant bacteria with limited resistance” (PLoS Biology, 2019)
Where two headings read alike, the source gives them in different places. Starred links: 1 amine or outer side, 2 acyl side, 3 side chain; linkers in the order of their positions; H or OH if unused. Non-standard residues stand in square brackets, D forms with d. Residues, ends and D or L forms follow the SMILES beside them. azaβ3(1Nal) = O=C(CN(Cc1cccc2ccccc12)N[*:1])[*:2]

Tests used:
[1] = Stability in mouse serum (half-life); assay type: in vitro ADME; conditions: 25% mouse serum, pre-incubated 15 min at 37°C, peptide 10^−4 M, RP-HPLC peak areas, mean of biological triplicates
Description: (§1) (10−4 M final concentrations). At selected time intervals, 100 μl of reaction mixture was collected, quenched by 200 μl 95% EtOH, and adjusted at pH 2 to prevent peptide adsorption to serum proteins. […] Supernatants were analyzed by RP-HPLC on an Xbridge C18 column with a linear gradient of water, 0.08% TFA, and acetonitrile with 1% TFA. HPLC peak areas were used to calculate the percentages of intact compound remaining at the various time points. MIC and MBC values were determined in triplicate in many ESKAPE clinical isolates, including a dozen MDR S. aureus, by the broth microdilution method. Peptidomimetics and antibiotics were assayed in a concentration range of 1 to 128 μM. The bacterial inoculum (5 × 10^5 colony-forming units [CFUs]/well) was prepared in MHB or CAMHB (150 μl). A Biotek Synergy 2 spectrophotometer was used to record the results after 18–20 h incubation at 35°C (±2°C). […] After every hour of culture for 4 h, serial dilutions were plated on BHI plates and incubated overnight at 37°C, and then the CFUs were counted and expressed as log CFU/ml. Phosphate-buffered saline (PBS)-exposed S. aureus MRSA was included as a control.
Supplementary file pbio.3000337.s013.docx: S7 Table Peptide half-lives in human and mouse sera. […] Peptide amounts and half-lives were determined by HPLC. Experiments were conducted on 25% human or mouse sera. Values are shown in minutes. The mean values correspond to biological triplicates. HPLC, high pressure liquid chromatography. (DOCX) Click here for additional data file.

P. aeruginosa 15638 = system: P. aeruginosa 15638
Summary of the method: (§2)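 Broth microdilution in MHB or CAMHB with an inoculum of 5 × 10^5 CFU/well; compounds were tested from 1 to 128 μM. Plates were incubated 18–20 h at 35°C (±2°C) and read spectrophotometrically. MIC and MBC were determined in triplicate.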

Escherichia coli MCR−1 = conditions: MCR−1
Summary of the method: as §2

Escherichia coli 283 = conditions: 283
Summary of the method: as §2

[2] = system: Enterobacter cloacae ATCC13047; conditions: ATCC13047
Summary of the method: as §2

E. faecium Aus0004 = system: E. faecium Aus0004
Summary of the method: as §2

Escherichia coli K12 = conditions: K12
Summary of the method: as §2

Escherichia coli 508 = system: Escherichia coli 508
Summary of the method: as §2

Escherichia coli 758 = conditions: 758
Summary of the method: as §2

K. pneumoniae 13829 = conditions: 13829
Summary of the method: as §2

P. aeruginosa PA14 = conditions: PA14
Summary of the method: as §2

A. baumanii 11896 = system: A. baumanii 11896
Summary of the method: as §2

P. aeruginosa 15641 = conditions: 15641
Summary of the method: as §2

Escherichia coli ML35P = conditions: E. coli ML35P; broth microdilution; 3 independent experiments
Summary of the method: as §2

Escherichia coli PV = conditions: PV
Summary of the method: as §2

Escherichia coli 146 = conditions: 146
Summary of the method: as §2

P. aeruginosa 15637 = conditions: 15637
Summary of the method: as §2

P. aeruginosa 15644 = system: P. aeruginosa 15644
Summary of the method: as §2

A. baumanii 7985 = system: A. baumanii 7985
Summary of the method: as §2

Escherichia coli 066 = conditions: 066
Summary of the method: as §2

K. pneumoniae 13825 = system: K. pneumoniae 13825
Summary of the method: as §2

Escherichia coli 13090 = system: Escherichia coli 13090
Summary of the method: as §2

Escherichia coli 293 = conditions: 293
Summary of the method: as §2

P. aeruginosa 15643 = system: P. aeruginosa 15643
Summary of the method: as §2

Escherichia coli 750 = system: Escherichia coli 750
Summary of the method: as §2

Escherichia coli 444 = conditions: 444
Summary of the method: as §2

S. aureus MRSA = experiment: Time-kill assay at 30-fold MIC; assay type: cell-based; conditions: 4 h
Description: as §1

MRSA = experiment: Mild sepsis mouse model, survival; assay type: in vivo; conditions: mice, approximately 5 × 10^8 MRSA IV; single IV 1.5 mg.kg^−1 at 3 h or 15 h post infection; 14 d
Text: Tolerance and toxicity studies were done on male Swiss mice (CD-1 Crl: CD-1 [ICR] IGS; Charles River). These were 7 to 10 weeks old and weighed an average of 37.2 g. All experimental protocols were approved by the Adaptive Therapeutics Animal Care and Use Committee (APAFiS #4508-2016031l15541258 v2). For the sepsis model, we used female Swiss mice (Janvier Labs), 6 to 8 weeks old and weighing approximately 30 g. Experiments were monitored in the ARCHE-BIOSIT animal lab in Rennes, in biological duplicate. We used Groups of 5 mice for the mild and the severe sepsis models with MRSA. Mice were IV inoculated with 150 μl of MRSA suspensions in 0.9% NaCl containing approximately 5 × 10^8 CFUs for the “mild” sepsis and approximately 2 × 10^9 CFUs for the “severe” sepsis, respectively. […] Mice survival was monitored for 4 d (“severe” sepsis) or 14 d (“mild” sepsis), and the statistical significance of difference(s) between the groups was evaluated using the Wilcoxon test. P < 0.05 was considered significant. Two weeks (“mild” sepsis) or 4 d (“severe” sepsis) after inoculation, mice were euthanized with CO2.

Structure (SMILES)	half-life [1]	MIC (Escherichia coli MCR−1)	MIC (Escherichia coli 283)	MIC [2]	MIC (Escherichia coli K12)	MIC (Escherichia coli 758)	MIC (K. pneumoniae 13829)	MIC (P. aeruginosa PA14)	MIC (A. baumanii 11896)	MIC (P. aeruginosa 15641)	MIC (Escherichia coli ML35P)	MIC (Escherichia coli PV)	MIC (Escherichia coli 146)	MIC (P. aeruginosa 15637)	MIC (A. baumanii 7985)	MIC (Escherichia coli 066)	MIC (Escherichia coli 293)	MIC (Escherichia coli 444)	Bactericidal activity in time-kill curves (S. aureus MRSA)	Survival in mild sepsis (MRSA)	also measured
CC(C)[C@@H]1NC(=O)[C@H](CCCNC(=N)N)NC(=O)[C@H](CCCNC(=N)N)NC(=O)[C@H](Cc2c[nH]c3ccccc23)NC(=O)[C@H](Cc2ccccc2)NC(=O)[C@H](Cc2ccccc2)NC(=O)[C@H](CCCCN)NC1=O [Pep18] (cyclo(FFWRRVK))	8.5 ± 2.5 h	32 (32.8) μM	32 (32.8) μM	128 (131.2) μM	16 (16.4) μM	32 (32.8) μM	>128 µM	8 (8.2) μM	>128 µM	32 (32.8) μM	16 (16.4) μM	32 (32.8) μM	32 (32.8) μM	8 (8.2) μM	>128 µM	32 (32.8) μM	32 (32.8) μM	32 (32.8) μM	higher bactericidal activities than vancomycin	no effect	MIC (P. aeruginosa 15638; P. aeruginosa 15638, clinical strain, Caen hemoculture, broth microdilution, 3 independent experiments): 64 (65.6) μM; MIC (E. faecium Aus0004; E. faecium Aus0004, broth microdilution, 3 independent experiments): 64 (65.6) μM; MIC (Escherichia coli 508; E. coli 508, clinical strain, Rennes urinary catheter, broth microdilution, 3 independent experiments): 64 (65.6) μM; MIC (P. aeruginosa 15644; P. aeruginosa 15644, clinical strain, Caen hemoculture, broth microdilution, 3 independent experiments): 64 (65.6) μM; MIC (K. pneumoniae 13825; K. pneumoniae 13825, clinical strain, Caen hemoculture, broth microdilution, 3 independent experiments): 16 (16.4) μM; MIC (Escherichia coli 13090; E. coli 13090, clinical strain, Caen hemoculture, broth microdilution, 3 independent experiments): 16 (16.4) μM; MIC (P. aeruginosa 15643; P. aeruginosa 15643, clinical strain, Caen hemoculture, broth microdilution, 3 independent experiments): 16 (16.4) μM; MIC (Escherichia coli 750; E. coli 750, clinical strain, Rennes urinary catheter, broth microdilution, 3 independent experiments): 16 (16.4) μM
CC(C)[C@@H]1NC(=O)[C@H](CCCNC(=N)N)NC(=O)[C@H](CCCNC(=N)N)NC(=O)CN(Cc2cccc3ccccc23)NC(=O)[C@H](Cc2ccccc2)NC(=O)CN(Cc2cccc3ccccc23)NC(=O)[C@H](CCCCN)NC1=O [Pep19] (cyclo([azaβ3(1Nal)]F[azaβ3(1Nal)]RRVK))	9 ± 1.75 h	16 (18) μM	8 (9) μM	16 (18) μM	4 (4.5) μM	8 (9) μM	>128 µM	8 (9) μM	8 (9) μM	16 (18) μM	4 (4.5) μM	8 (9) μM	8 (9) μM	8 (9) μM	8 (9) μM	8 (9) μM	16 (18) μM	8 (9) μM	higher bactericidal activities than vancomycin	survived better than those without treatment	MIC (P. aeruginosa 15638; 15638): 16 (18) μM; MIC (E. faecium Aus0004; Aus0004): 8 (9) μM; MIC (Escherichia coli 508; 508): 8 (9) μM; MIC (P. aeruginosa 15644; 15644): 16 (18) μM; MIC (K. pneumoniae 13825; 13825): 8 (9) μM; MIC (Escherichia coli 13090; 13090): 4 (4.5) μM; MIC (P. aeruginosa 15643; 15643): 8 (9) μM; MIC (Escherichia coli 750; 750): 8 (9) μM
